System: Lewis lung carcinoma (LLC) tumour
Test: Biodistribution in LLC tumour model in vivo
Design: species or system C57BL/6 mice
Experimental: 1×10^6 Lewis lung carcinoma (LLC) cells are injected subcutaneously into right inner thigh of C57BL/6 mice. Tumours were allowed to grow for 15 days prior to biodistribution being carried out.
Biodistribution studies were performed in the LLC tumour model.
Biodistribution was performed in the LLC tumour model of Example 23 with Compounds 46B and 48B.

Row | SMILES | % ID Urinary (urinary excretion), mean (5 min post injection) [% ID] | % ID/g Tumour, mean (5 min post injection) [% ID/g] | Tumour/Blood, mean (5 min post injection) | Tumour/Heart, mean (5 min post injection) | Tumour/Lung, mean (5 min post injection) | Tumour/Muscle, mean (5 min post injection) | % ID Urinary (urinary excretion), mean (30 min post injection) [% ID] | % ID/g Tumour, mean (30 min post injection) [% ID/g] | Tumour/Blood, mean (30 min post injection) | Tumour/Heart, mean (30 min post injection) | Tumour/Lung, mean (30 min post injection) | Tumour/Muscle, mean (30 min post injection) | % ID Urinary (urinary excretion), mean (60 min post injection) [% ID] | % ID/g Tumour, mean (60 min post injection) [% ID/g] | Tumour/Blood, mean (60 min post injection) | Tumour/Heart, mean (60 min post injection) | Tumour/Lung, mean (60 min post injection) | Tumour/Muscle, mean (60 min post injection) | % ID Urinary (urinary excretion), mean (120 min post injection) [% ID] | % ID/g Tumour, mean (120 min post injection) [% ID/g] | further results
1 | NC(=O)[C@H](Cc1ccc(O)c([123I])c1)NC(=O)COCC(=O)NCCOCCOCCOCCNC(=O)CCN(C1(C(=O)NO)CCCC1)S(=O)(=O)c1ccc(Oc2ccc(F)cc2)cc1 [Compound 20A] | – | – | – | – | – | – | – | – | – | – | – | – | – | – | – | – | – | – | – | – | Decrease in HBS (hepatobiliary) excretion compared to Compound 24A: 10%; Increase in urinary excretion compared to Compound 24A: 10%; Tumour retention compared to Compound 24A: slightly increased; Uptake into the tumour compared to Compound 24A: slightly lower
2 | NC(=O)[C@H](Cc1ccc(O)c([123I])c1)NC(=O)[C@H](CCC(=O)O)NC(=O)[C@H](CCC(=O)O)NC(=O)[C@H](CCC(=O)O)NC(=O)[C@H](CCC(=O)O)NC(=O)[C@H](CCC(=O)O)NC(=O)CCN(C1(C(=O)NO)CCCC1)S(=O)(=O)c1ccc(Oc2ccc(F)cc2)cc1 [Compound 21A] | 5.62 | 1.64 | 0.13 | 0.30 | 0.28 | 0.92 | 26.73 | 2.20 | 0.33 | 0.83 | 0.65 | 1.72 | 39.99 | 1.97 | 0.40 | 1.14 | 0.66 | 2.30 | 52.08 | 1.60 | Tumour/Blood, mean (120 min post injection): 0.37; Tumour/Heart, mean (120 min post injection): 0.91; Tumour/Lung, mean (120 min post injection): 0.61; Tumour/Muscle, mean (120 min post injection): 2.44
3 | NC(=O)[C@H](Cc1ccc(O)c([123I])c1)NC(=O)COCC(=O)NCCOCCOCCOCCNC(=O)[C@H](CCC(=O)O)NC(=O)[C@H](CCC(=O)O)NC(=O)[C@H](CCC(=O)O)NC(=O)[C@H](CCC(=O)O)NC(=O)[C@H](CCC(=O)O)NC(=O)CCN(C1(C(=O)NO)CCCC1)S(=O)(=O)c1ccc(Oc2ccc(F)cc2)cc1 [Compound 38A] | 6.37 | 2.08 | 0.13 | 0.29 | 0.33 | 1.22 | 40.17 | 2.14 | 0.30 | 0.90 | 0.73 | 2.19 | 68.53 | 1.06 | 0.45 | 1.25 | 0.83 | 2.27 | 78.75 | 0.42 | Tumour/Blood, mean (120 min post injection): 0.52; Tumour/Heart, mean (120 min post injection): 1.14; Tumour/Lung, mean (120 min post injection): 0.64; Tumour/Muscle, mean (120 min post injection): 1.82
4 | NCCCC[C@H](NC(=O)CCN(C1(C(=O)NO)CCCC1)S(=O)(=O)c1ccc(Oc2ccc(F)cc2)cc1)C(=O)N[C@@H](CCCCN)C(=O)N[C@@H](CCCCN)C(=O)N[C@@H](CCCCN)C(=O)N[C@@H](CCCCN)C(=O)NCCOCCOCCOCCNC(=O)COCC(=O)N[C@@H](Cc1ccc(O)c([123I])c1)C(N)=O [Compound 42A] | 6.89 | 2.26 | 0.26 | 0.47 | 0.26 | 1.46 | 16.98 | 2.67 | 0.54 | 1.24 | 0.57 | 3.22 | 31.69 | 2.35 | 0.66 | 1.49 | 0.74 | 3.52 | 48.07 | 1.29 | Tumour/Blood, mean (120 min post injection): 0.56; Tumour/Heart, mean (120 min post injection): 1.49; Tumour/Lung, mean (120 min post injection): 0.60; Tumour/Muscle, mean (120 min post injection): 2.51
5 | NC(=O)[C@H](Cc1ccc(O)c([123I])c1)NC(=O)CCOCCOCCOCCOCCOCCOCCOCCOCCOCCOCCOCCNC(=O)CCN(C1(C(=O)NO)CCCC1)S(=O)(=O)c1ccc(Oc2ccc(F)cc2)cc1 [Compound 44A] | 3.94 | 1.14 | 0.41 | 0.86 | 0.49 | 1.91 | 5.85 | 0.5 | 0.38 | 0.870 | 0.54 | 1.57 | 6.36 | 0.66 | 0.42 | 0.940 | 0.69 | 2.3 | 9.42 | 0.53 | Tumour/Blood, mean (120 min post injection): 0.43; Tumour/Heart, mean (120 min post injection): 1.060; Tumour/Lung, mean (120 min post injection): 0.72; Tumour/Muscle, mean (120 min post injection): 2.8

Reference: US20070104644A1, “Inhibitor imaging agents” (priority 2003, published 2007)
